Data from patent US10562898B2, “Substituted benzenesulfonamides as inhibitors of alpha-4 beta-7 integrin activity” (EA PHARMA CO., LTD., priority 2016, dated 2020).

Each compound was assayed against T1, T cell α4β7 integrin (Homo sapiens, UniProt P13612+P26010) (assay: Human MAdCAM-1/α4β7 integrin binding inhibitory activity evaluation test in whole human blood). Conditions: recombinant human MAdCAM-1/Fc, CD4 positive cells, flow cytometry.
T1 construct: Blood samples were obtained from healthy volunteers' blood donation; endogenous in cells; host or cells: CD4-positive T cells in whole blood of healthy human volunteers
T1 sequence (P13612 34-1032): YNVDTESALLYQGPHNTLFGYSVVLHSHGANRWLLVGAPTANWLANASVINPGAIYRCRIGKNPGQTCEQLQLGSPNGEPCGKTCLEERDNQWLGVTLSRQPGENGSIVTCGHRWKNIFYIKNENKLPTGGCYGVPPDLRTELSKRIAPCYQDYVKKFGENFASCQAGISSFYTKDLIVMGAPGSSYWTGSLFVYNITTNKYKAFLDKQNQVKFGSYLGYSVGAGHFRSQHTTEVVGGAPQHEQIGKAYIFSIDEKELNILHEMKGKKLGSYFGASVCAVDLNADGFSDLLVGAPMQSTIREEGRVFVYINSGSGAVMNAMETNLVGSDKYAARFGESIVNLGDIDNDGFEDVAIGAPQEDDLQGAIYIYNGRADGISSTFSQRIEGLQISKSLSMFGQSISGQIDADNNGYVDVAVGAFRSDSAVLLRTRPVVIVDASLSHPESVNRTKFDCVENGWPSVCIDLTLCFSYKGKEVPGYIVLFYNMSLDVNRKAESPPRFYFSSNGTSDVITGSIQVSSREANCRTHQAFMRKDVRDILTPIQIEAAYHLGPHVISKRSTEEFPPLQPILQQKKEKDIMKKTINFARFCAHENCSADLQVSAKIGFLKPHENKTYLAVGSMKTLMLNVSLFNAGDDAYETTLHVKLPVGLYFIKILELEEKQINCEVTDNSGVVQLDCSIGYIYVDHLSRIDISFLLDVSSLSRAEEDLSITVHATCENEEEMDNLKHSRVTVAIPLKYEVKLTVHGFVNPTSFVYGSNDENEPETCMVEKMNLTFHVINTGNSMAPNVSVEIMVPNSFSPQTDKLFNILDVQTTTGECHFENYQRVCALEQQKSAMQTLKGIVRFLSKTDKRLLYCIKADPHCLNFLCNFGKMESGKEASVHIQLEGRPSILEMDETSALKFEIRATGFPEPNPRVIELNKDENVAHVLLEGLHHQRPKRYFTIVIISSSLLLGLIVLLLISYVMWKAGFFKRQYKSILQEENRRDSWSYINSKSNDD
T1 sequence (P26010 20-798): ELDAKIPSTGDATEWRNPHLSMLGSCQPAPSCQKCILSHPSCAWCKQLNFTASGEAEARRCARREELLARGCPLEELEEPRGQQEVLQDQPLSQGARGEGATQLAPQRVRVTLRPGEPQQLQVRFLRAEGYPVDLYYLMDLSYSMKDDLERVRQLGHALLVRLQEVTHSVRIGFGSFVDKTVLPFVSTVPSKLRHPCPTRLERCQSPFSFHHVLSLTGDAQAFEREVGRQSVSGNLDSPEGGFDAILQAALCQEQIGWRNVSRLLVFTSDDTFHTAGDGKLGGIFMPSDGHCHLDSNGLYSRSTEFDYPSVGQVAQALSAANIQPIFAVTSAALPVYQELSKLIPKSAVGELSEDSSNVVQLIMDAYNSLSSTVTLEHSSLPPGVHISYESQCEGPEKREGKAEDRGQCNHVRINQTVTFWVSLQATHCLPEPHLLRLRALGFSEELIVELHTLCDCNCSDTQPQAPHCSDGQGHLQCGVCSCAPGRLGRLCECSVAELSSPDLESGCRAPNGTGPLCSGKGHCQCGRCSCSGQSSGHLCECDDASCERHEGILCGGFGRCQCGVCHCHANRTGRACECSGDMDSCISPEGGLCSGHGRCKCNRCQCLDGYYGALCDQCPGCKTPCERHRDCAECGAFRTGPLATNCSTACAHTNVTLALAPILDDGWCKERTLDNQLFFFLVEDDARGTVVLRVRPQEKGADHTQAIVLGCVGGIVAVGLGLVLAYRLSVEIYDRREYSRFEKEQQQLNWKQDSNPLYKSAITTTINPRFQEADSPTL
Assay type: cell-based
Method: Human MAdCAM-1/α4β7 Integrin Binding Inhibitory Activity Evaluation Test in Whole Human Blood
Each test substance was measured in terms of the inhibitory activity of binding of T cell α4β7 integrin and MAdCAM-1 in human whole blood. Blood samples were obtained from healthy volunteers' blood donation.
A 4 mM MnCl2 solution and each of dilutions of various test substances were added to human whole blood, followed by incubation for 10 minutes. Recombinant human MAdCAM-1/Fc (R&D Systems) at 10 μg/mL was added, and each test sample taken in a total amount of 50 μL was incubated for 30 minutes. Then, 950 μL of Lyse/Fix (BD Biosciences) was added to allow hemolysis and fixation to proceed at 37° C. for 10 minutes. After centrifugation for 5 minutes, the supernatant was removed and 600 μL of a RPMI-1640 medium supplemented with 10% inactivated fetal bovine serum (hereinafter referred to as the medium) was added, followed by centrifugation for 5 minutes, removal of the supernatant, and then washing. The test sample was washed again with the medium, and then 2.5 μg/mL Mouse Anti-MAdCAM-1 antibody (Invitrogen) was added, followed by incubation for 30 minutes or more. After the test sample was washed with the medium, 3.4 μg/mL Goat Anti-Mouse IgG H&L, FITC (Abcam) was added, followed by incubation for 30 minutes or more. After the test sample was washed with the medium, 0.15 μg/mL PE Rat Anti-Mouse CD4 (BD Pharmigen) was added, followed by incubation for 30 minutes or more. After the test sample was washed with the medium, a ratio of MAdCAM-1 positive cells to CD4 positive cells was measured by using flow cytometry.
From independent test results using different blood samples of two to three persons, a MAdCAM-1 binding inhibiting rate of each test substance at each of various concentrations was obtained under the setting in which, among wells containing no test substances, a well containing no ligand was scored at 100% inhibition and a well containing ligand was scored at 0% inhibition, and then a concentration IC50 which brought about 50% binding inhibition was calculated.

| IC50 | Structure (SMILES) |
| --- | --- |
| 4.8 nM | Cc1cn(C)c(=O)n(-c2ccc(C[C@H](NC(=O)c3cc(F)c(NS(=O)(=O)c4ccc(NC(=O)C(C)(C)CO)cc4)cc3F)C(=O)O)cn2)c1=O [Compound A63] |
| 5.7 nM | Cn1cc(C(F)(F)F)c(=O)n(-c2ccc(C[C@H](NC(=O)c3cc(F)c(NS(=O)(=O)c4ccc(NC(=O)C(C)(C)C)cc4)cc3F)C(=O)O)cn2)c1=O [Compound A67] |
| 5.6 nM | CN1CCC(=O)N(c2ccc(C[C@H](NC(=O)c3cc(F)c(NS(=O)(=O)c4ccc(NC(=O)C(C)(C)C)cc4)cc3F)C(=O)O)cn2)C1=O [Compound A75, (2S)-2-[2,5-difluoro-4-[(4-pivalamidophenyl)sulfonamide]benzamido]-3-[6-(3-methyl-2,6-dioxotetrahydropyrimidin-1(2H)-yl)pyridin-3-yl]propanoic acid] |
| 5.1 nM | Cc1cn(C)c(=O)n(-c2ccc(C[C@H](NC(=O)c3cc(F)c(NS(=O)(=O)c4ccc(NC(=O)C(C)(C)C(F)(F)F)cc4)cc3F)C(=O)O)cn2)c1=O [Compound A58] |

Further lines, the compound ahead of its results:

| Structure (SMILES) | IC50 |
| --- | --- |
| Cn1ccc(=O)n(-c2ccc(C[C@H](NC(=O)c3cc(F)c(NS(=O)(=O)c4ccc(NC(=O)C(C)(C)C)cc4)cc3F)C(=O)O)cn2)c1=O [Compound A53] | 2.9 nM |
| Cc1cn(C)c(=O)n(-c2ccc(C[C@H](NC(=O)c3cc(F)c(NS(=O)(=O)c4ccc(NC(=O)C5(C(F)(F)F)CC5)cc4)cc3F)C(=O)O)cn2)c1=O [Compound A56] | 5.4 nM |
| Cc1cn(C)c(=O)n(-c2ccc(C[C@H](NC(=O)c3cc(F)c(NS(=O)(=O)c4ccc(NC(=O)C(C)(C)C)cc4)cc3F)C(=O)O)cn2)c1=O [Compound A54] | 2 nM |
| Cc1cc(=O)n(-c2ccc(C[C@H](NC(=O)c3cc(F)c(NS(=O)(=O)c4ccc(NC(=O)C(C)(C)C)cc4)cc3F)C(=O)O)cn2)c(=O)n1C [Compound A45] | 1.5 nM |
